{
  "source": "patent US5304367A",
  "about": "“In vivo brain imaging agent and method for diagnosis of psychiatric disorders” (New York University, priority 1990, dated 1994)",
  "key": {"[1]": {"test": "whole body distribution, female BALB/c mice, 500 μCi/kg", "assay_type": "in vivo, mouse (BALB/c)"}, "[2]": {"system": "β-adrenergic receptor", "test": "quantitative autoradiography of brain sections from suicides and controls ([125I]iodopindolol)", "assay_type": "binding, human", "experimental": "Beta Receptor Autoradiography\nIodopindolol is a well characterized βAR antagonist with a very high affinity (<1 nM) and specificity (Barovsky, K. et al., supra). Receptor binding studies are performed according to techniques well known in the art (see, for example, Kuhar, M. J., supra; Rainbow, T. C. et al., 1982, 1984, supra). A preferred method is described herein, although it will be apparent to one of skill in the art that the disclosed method may be modified according to the tissue preparation and ligand used.\nSlides holding tissue sections are incubated for about 70 min at approximately 25° C. with 0.15 nM ^125 I-iodopindolol (New England Nuclear, 2200 Ci/mmole) in 25 mM Tris buffer, pH 7.5, containing 150 mM NaCl. Nonspecific binding is determined in the presence of 1 μM propranolol (see Examples, below). Zinterol, a selective β2 blocker, or metoprolol, a selective β1 antagonist, are added to the incubation buffer at 0.1 μM to achieve selective labeling of the β1 and β2 receptor subtypes, respectively. The incubation is followed by three 20 min washes in the same ice cold buffer. Slides are then dipped in ice cold distilled water to remove buffer salts, dried on a 50° C. slide warmer and apposed to ^3 H-sensitive film (Amersham ^3 H-hyperfilm) for 48-96 hours. The film is coexposed to commercial iodine standards (available from Amersham, for example). Film is developed manually using standard developer and fixer such as those available from the Eastman-Kodak Company. Sections are stained with cresyl violet and structures identified from the stained sections with the assistance of atlases and neuroanatomical texts such as: Barr M. L., The Human Nervous System: An Anatomical Viewpoint. Harper and Row, New York (1974); Carpenter M. B., Human Neuroanatomy. Williams and Wilkins, Baltimore (1976); DeArmond S. J. et al., Structure of the Human Brain : A Photographic Atlas. Oxford University Press, New York (1974); Nieuwenhuys R. et al., The Human Central Nervous System, Springer-Verlag, New York (1981 ), which references are hereby incorporated by reference.\nAutoradiograms are analyzed by computerized image analysis systems well-known in the art (for example, with the aid of an IBM-PC). The autoradiograms are placed on a light box and a video camera is used for image acquisition. […] Standard curves derived from the iodine standards are used to convert gray level readings into equivalents of fmol ^125 I-iodopindolol / mg tissue. Specific binding is calculated by subtracting nonspecific from total binding.\nFourteen suicide and 14 pair-matched control brains were collected over 3 years from the medical examiner's offices in New York City and Jaffa, ISRAEL. […] The results of the coroner's examination as well as the results of broad-spectrum toxicological tests performed by the forensic laboratory were made available within 8 weeks. Only drug-free and pathology-free brains were included. For each suicide brain, a control matched for sex and age group with a PMD under 48 hours was collected the same day or within a few days, so that the pairs are also matched for storage time. The brains from each pair were dissected or sectioned on the same day and receptors were labeled in the same experiment, by an experimenter blind to the identity of the samples.\nFor autoradiography, slices from frontal cortical and anterior basal ganglia levels were sectioned in a Bright Cryotome (a refrigerated whole-body microtome) at -15° C. Sections of 40 μm were thaw- mounted onto gelatin-coated glass slides and βARs were labeled with [^125 I]iodopindolol (Pazos et al., Brain Res. 358:324-328 (1982)); Rainbow et al., Proc. Natl. Acad. Sci. U.S.A., 81:1585-1589 (1984)). Receptors were labeled with 150 pM iodopindolol, with or without 10^-6 M propranolol to define non-specific binding. The autoradiograms were developed after 48 or 72 hours. […]"}},
  "data": [
    {"smiles": "CC(C)NCC(O)COc1cccc2[nH]cc([125I])c12", "note": "(centres unmarked) [^125 I-iodopindolol]", "values": [
      {"measurement": "brain levels relative to blood levels (mCi per gram of brain / mCi per ml blood)", "setting": "[1]; 1 minute post-injection", "result": "about 1/5"},
      {"measurement": "brain levels, injected dose", "setting": "[1]; 1 minute post-injection", "result": "less than 1 % of injected dose"},
      {"measurement": "urine levels", "setting": "[1]; 1 minute post-injection", "result": "below the threshold of detection"},
      {"measurement": "highest concentrations of radioactivity (counts/gram of tissue)", "setting": "[1]; 1 minute post-injection, 500 μCi/kg i.v.", "result": "in the lungs, followed by heart and other organs"},
      {"measurement": "receptor occupancy", "setting": "[1]; 120 min, based on Bmax of approximately 2 pmole/gram brain", "result": "less than 1%"},
      {"measurement": "Bmax used for receptor occupancy", "setting": "[1]; extrapolated from rat and human values", "result": "approximately 2 pmole/gram brain"},
      {"measurement": "brain levels, total injected dose", "setting": "[1]; two hours later (120 min)", "result": "0.06 % of total injected dose"},
      {"measurement": "highest activity, order of organs", "setting": "[1]; two hours later (120 min)", "result": "highest activity was found in urine, followed by lung, heart and brain"},
      {"measurement": "nonspecific binding", "setting": "[2]; FIG. 2, sagittal section, normal male, in the presence of propranolol", "result": "low and uniform throughout the section"},
      {"measurement": "[125I]iodopindolol bound", "setting": "[2]; caudate, control, n=5", "result": "13.2 ± 4.0", "unit": "fm/mg tissue"},
      {"measurement": "[125I]iodopindolol bound", "setting": "[2]; caudate, suicide, n=5", "result": "15.4 ± 2.0", "unit": "fm/mg tissue"},
      {"measurement": "[125I]iodopindolol bound", "setting": "[2]; cingulate gyrus, control, n=8", "result": "11.8 ± 3.3", "unit": "fm/mg tissue"},
      {"measurement": "[125I]iodopindolol bound", "setting": "[2]; cingulate gyrus, suicide, n=8, P < 0.04", "result": "16.0 ± 2.7", "unit": "fm/mg tissue"},
      {"measurement": "[125I]iodopindolol bound", "setting": "[2]; frontalis inferior, control, n=6", "result": "14.2 ± 4.0", "unit": "fm/mg tissue"},
      {"measurement": "[125I]iodopindolol bound", "setting": "[2]; frontalis inferior, suicide, n=6", "result": "17.2 ± 4.1", "unit": "fm/mg tissue"},
      {"measurement": "[125I]iodopindolol bound", "setting": "[2]; frontalis medius, control, n=8", "result": "9.3 ± 4.0", "unit": "fm/mg tissue"},
      {"measurement": "[125I]iodopindolol bound", "setting": "[2]; frontalis medius, suicide, n=8", "result": "16.7 ± 3.5", "unit": "fm/mg tissue"},
      {"measurement": "[125I]iodopindolol bound", "setting": "[2]; frontalis superior, control, n=9", "result": "10.8 ± 2.6", "unit": "fm/mg tissue"},
      {"measurement": "[125I]iodopindolol bound", "setting": "[2]; frontalis superior, suicide, n=9, P < 0.03", "result": "17.2 ± 2.9", "unit": "fm/mg tissue"},
      {"measurement": "[125I]iodopindolol bound", "setting": "[2]; putamen, control, n=5", "result": "19.5 ± 1.1", "unit": "fm/mg tissue"},
      {"measurement": "[125I]iodopindolol bound", "setting": "[2]; putamen, suicide, n=5", "result": "17.4 ± 2.5", "unit": "fm/mg tissue"},
      {"measurement": "[125I]iodopindolol bound", "setting": "[2]; white matter (cortical), control, n=9", "result": "5.6 ± 1.8", "unit": "fm/mg tissue"},
      {"measurement": "[125I]iodopindolol bound", "setting": "[2]; white matter (cortical), suicide, n=9", "result": "6.7 ± 0.7", "unit": "fm/mg tissue"}
    ]}
  ]
}
